Measured values reported in patent publication US10449208B2, “Antiviral prodrugs of tenofovir” (Merck Sharp & Dohme Corp., priority 2016, dated 2019).
Where two headings read alike, the source gives them in different places.

Tested on: HIV-1 (H9/IIIB strain)
Assay: Multiple round HIV-1 infection assay (Viking assay) in MT4-GFP cells
Assay type: cell-based
Details: MT4-GFP cells infected with HIV-1 H9/IIIB, inhibition of reproductive ratio R0
Procedure: Assessing Antiviral Potency in a Multiple Round HIV-1 Infection Assay (Viking Assay)
The antiviral activity of the tenofovir prodrugs of the Examples herein was assessed in an assay that measures the rate of replication of HIV in cell culture, termed the Viking assay (Viral KINetics in Green cells) and performed as follows. HIV-1 replication was monitored using MT4-gag-GFP clone D3 (hereafter designated MT4-GFP), which are MT-4 cells modified to harbor a GFP reporter gene, the expression of which is dependent on the HIV-1 expressed proteins tat and rev. Productive infection of an MT4-GFP cell with HIV-1 results in GFP expression approximately 24 h post-infection. MT4-GFP cells were maintained at 37° C./5% CO2/90% relative humidity in RPMI 1640 supplemented with 10% fetal bovine serum, 100 μ/ml penicillin/streptomycin, and 400 μg/ml G418 to maintain the reporter gene. For infections, MT4-GFP cells were placed in the same medium lacking G418 and infected overnight with HIV-1 (H9/IIIB strain) virus at an approximate multiplicity of infection of 0.01 in the same incubation conditions. Cells were then washed and re-suspended in either RPMI 1640 supplemented with 10% or 50% normal human serum (NFIS) at 1.6×10^5 cells/mL (10% NHS or 50% NHS, respectively). Compound plates were prepared by dispensing compounds dissolved in DMSO into wells of 384 well poly-D -lysine-coated plates (0.2 μl/well) using an ECHO acoustic dispenser. Each compound was tested in a 10-point serial 3-fold dilution (typical final concentrations: 8.4 μM-0.42 nM). Controls included no inhibitor (DMSO only) and a combination of three antiviral agents (efavirenz, indinavir, an in-house integrase strand transfer inhibitor at final concentrations of 4 μM each). Cells were added (50 μL/well) to compound plates and the infected cells were maintained at 37° C./5% CO2/90% relative humidity.
infected cells were quantified at two time points, ˜48 h and ˜72 h post -infection, by counting the number of green cells in each well using an Acumen eX3 scanner. The increase in the number of green cells over ˜24 h period gives the reproductive ratio, R0, which is typically 5-15 and has been shown experimentally to be in logarithmic phase (data not shown). Inhibition of R0 is calculated for each well, and IC50s determined by non-linear 4-parameter curve fitting.

[1] = Human immunodeficiency virus 1, IIIB, 10% normal human serum, read-out: Viking, IC50 (10% NHS)
[2] = Human immunodeficiency virus 1, IIIB, 50% normal human serum, read-out: Viking, IC50 (50% NHS)
[3] = 10% normal human serum, read-out: Viking, IC50 (10% NHS)
[4] = 50% normal human serum, read-out: Viking, IC50 (50% NHS)

Question: Which IC50 [1] does the source give for `C[C@H](Cn1cnc2c(N)ncnc21)OCP(=O)(NC(C)(C)C(=O)OC1CCCC1)O[C@@H](C)C(=O)OC1CCCC1` (single isomer, unassigned) [Example 5A] here?
Answer: 5.71 nM

Question: What about the IC50 [2] of the same molecule?
Answer: 45 nM

Question: `C[C@H](Cn1cnc2c(N)ncnc21)OCP(=O)(NC(C)(C)C(=O)OC1CCCC1)O[C@@H](C)C(=O)OC1CCCC1` (single isomer, unassigned) [Example 5B] was tested. Which IC50 [3] did it give?
Answer: 5.73 nM

Question: What about the IC50 [4] of the same molecule?
Answer: 23.4 nM

Question: With `CCCCCCOC(=O)C(C)(C)NP(=O)(CO[C@H](C)Cn1cnc2c(N)ncnc21)O[C@H](C)C(=O)OC(C)C` (single isomer, unassigned) [Example 9A] as the molecule, how does the IC50 [3] read?
Answer: 4.2 nM

Question: What about the IC50 [4] of the same molecule?
Answer: 26.1 nM

Question: What does the source list for `CCCCCOC(=O)[C@H](C)OP(=O)(CO[C@H](C)Cn1cnc2c(N)ncnc21)NC(C)(C)C(=O)OC(C)C` (single isomer, unassigned) [Example 10A]?
Answer: IC50 [3]: 26.3 nM; IC50 [4]: 142 nM

Question: `CCCCCOC(=O)[C@H](C)OP(=O)(CO[C@H](C)Cn1cnc2c(N)ncnc21)NC(C)(C)C(=O)OC(C)C` (single isomer, unassigned) [Example 10B] was tested. Which IC50 [3] did it give?
Answer: 85.6 nM

Question: What about the IC50 [4] of the same molecule?
Answer: 357 nM

Question: With `CCCCOC(=O)C(C)(C)NP(=O)(CO[C@H](C)Cn1cnc2c(N)ncnc21)O[C@@H](C)C(=O)OC1CCCC1` (single isomer, unassigned) [Example 11A] as the molecule, how does the IC50 [3] read?
Answer: 24.8 nM

Question: What about the IC50 [4] of the same molecule?
Answer: 66.2 nM

Question: What does the source list for `CCCCOC(=O)C(C)(C)NP(=O)(CO[C@H](C)Cn1cnc2c(N)ncnc21)O[C@@H](C)C(=O)OC1CCCC1` (single isomer, unassigned) [Example 11B]?
Answer: IC50 [3]: 3.98 nM; IC50 [4]: 22.8 nM

Question: With `CC(C)OC(=O)[C@H](C)OP(=O)(CO[C@H](C)Cn1cnc2c(N)ncnc21)NC(C)(C)C(=O)OC1CCCCC1` (single isomer, unassigned) [Example 12B] as the molecule, how does the IC50 [3] read?
Answer: 6.07 nM

Question: And the IC50 [4]?
Answer: 13.5 nM

Question: Which IC50 [1] does the source give for `CC(C)OC(=O)COP(=O)(CO[C@H](C)Cn1cnc2c(N)ncnc21)NC(C)(C)C(=O)OC1CCCC1` (single isomer, unassigned) [Example 14A] here?
Answer: 10 nM

Question: What about the IC50 [2] of the same molecule?
Answer: 23.5 nM

Question: `CC(C)OC(=O)COP(=O)(CO[C@H](C)Cn1cnc2c(N)ncnc21)NC(C)(C)C(=O)OC1CCCC1` (single isomer, unassigned) [Example 14B] was tested. Which IC50 [3] did it give?
Answer: 5.4 nM

Question: What about the IC50 [4] of the same molecule?
Answer: 36.2 nM

Question: What does the source list for `CC(C)OC(=O)COP(=O)(CO[C@H](C)Cn1cnc2c(N)ncnc21)NC(C)(C)C(=O)OC1CCCCC1` (single isomer, unassigned) [Example 15A]?
Answer: IC50 [1]: 9.98 nM; IC50 [2]: 28.5 nM

Question: How did the IC50 [3] turn out when `CC(C)OC(=O)COP(=O)(CO[C@H](C)Cn1cnc2c(N)ncnc21)NC(C)(C)C(=O)OC1CCCCC1` (single isomer, unassigned) [Example 15B] was run?
Answer: 10.3 nM

Question: What about the IC50 [4] of the same molecule?
Answer: 44.2 nM

Question: For `CC(C)OC(=O)[C@H](C)OP(=O)(CO[C@H](C)Cn1cnc2c(N)ncnc21)NC(C)(C)C(=O)OC1CCC1` (single isomer, unassigned) [Example 16A], which IC50 [1] is on record?
Answer: 2.61 nM

Question: What about the IC50 [4] of the same molecule?
Answer: 7.5 nM

Question: For `CC(C)OC(=O)[C@H](C)OP(=O)(CO[C@H](C)Cn1cnc2c(N)ncnc21)NC(C)(C)C(=O)OC1CCC1` (single isomer, unassigned) [Example 16B], which IC50 [3] is on record?
Answer: 4.75 nM

Question: And the IC50 [4]?
Answer: 17.1 nM

Question: What does the source list for `CC(C)OC(=O)COP(=O)(CO[C@H](C)Cn1cnc2c(N)ncnc21)NC(C)(C)C(=O)OC1CCC1` (single isomer, unassigned) [Example 17A]?
Answer: IC50 [1]: 6.39 nM; IC50 [2]: 12.7 nM

Question: For `CCCCCOC(=O)C(C)(C)NP(=O)(CO[C@H](C)Cn1cnc2c(N)ncnc21)O[C@@H](C)C(=O)OC1CCCC1` (single isomer, unassigned) [Example 19A], which IC50 [3] is on record?
Answer: 14 nM

Question: And the IC50 [4]?
Answer: 49.7 nM

Question: Which results are given for `CCOC(=O)C(C)(C)NP(=O)(CO[C@H](C)Cn1cnc2c(N)ncnc21)OCC(=O)OC(C)C` (stereo partly drawn) [Example 27, Ethyl 2-((((((R)-1-(6-amino-9H-purin-9-yl)propan-2-yl)oxy)methyl)(2-isopropoxy-2-oxoethoxy)phosphoryl)amino)-2-methylpropanoate]?
Answer: IC50 [1]: 10.1 nM; IC50 [2]: 13.3 nM

Question: For `CCOC(=O)C(C)(C)NP(=O)(CO[C@H](C)Cn1cnc2c(N)ncnc21)O[C@@H](C)C(=O)OC(C)C` (stereo partly drawn) [Example 28, Ethyl 2-((((((R)-1-(6-amino-9H-purin-9-yl)propan-2-yl)oxy)methyl)(((S)-1-isopropoxy-1-oxopropan-2-yl)oxy)phosphoryl)amino)-2-methylpropanoate], which IC50 [1] is on record?
Answer: 6.38 nM

Question: And the IC50 [2]?
Answer: 19.7 nM

Question: What does the source list for `CCOC(=O)C(C)(C)NP(=O)(CO[C@H](C)Cn1cnc2c(N)ncnc21)O[C@H](C)C(=O)OC(C)C` (stereo partly drawn) [Example 29, Ethyl 2-((((((R)-1-(6-amino-9H-purin-9-yl)propan-2-yl)oxy)methyl)(((R)-1-isopropoxy-1-oxopropan-2-yl)oxy)phosphoryl)amino)-2-methylpropanoate]?
Answer: IC50 [1]: 9.22 nM; IC50 [2]: 17.2 nM

Question: Which IC50 [1] does the source give for `CC(C)COC(=O)C(C)(C)NP(=O)(CO[C@H](C)Cn1cnc2c(N)ncnc21)OCC(=O)OC(C)C` (stereo partly drawn) [Example 30, Isobutyl 2-((((((R)-1-(6-amino-9H-purin-9-yl)propan-2-yl)oxy)methyl)(2-isopropoxy-2-oxoethoxy)phosphoryl)amino)-2-methylpropanoate] here?
Answer: 4.38 nM

Question: And the IC50 [2]?
Answer: 12 nM

Question: Which IC50 [1] does the source give for `CC(C)OC(=O)[C@H](Cc1ccccc1)OP(=O)(CO[C@H](C)Cn1cnc2c(N)ncnc21)NC(C)(C)C(=O)OC(C)C` (stereo partly drawn) [Example 32, Isopropyl 2-((((((R)-1-(6-amino-9H-purin-9-yl)propan-2-yl)oxy)methyl)(((S)-1-isopropoxy-1-oxo-3-phenylpropan-2-yl)oxy)phosphoryl)amino)-2-methylpropanoate] here?
Answer: 3.34 nM

Question: What about the IC50 [2] of the same molecule?
Answer: 23.2 nM

Question: Which results are given for `CCCCCCOC(=O)C(C)(C)NP(=O)(CO[C@H](C)Cn1cnc2c(N)ncnc21)O[C@@H](C)C(=O)OC1CCCC1` (stereo partly drawn) [Example 34, Hexyl 2-((((((R)-1-(6-amino-9H-purin-9-yl)propan-2-yl)oxy)methyl)(((S)-1-(cyclopentyloxy)-1-oxopropan-2-yl)oxy)phosphoryl)amino)-2-methylpropanoate]?
Answer: IC50 [1]: 3.57 nM; IC50 [2]: 12.9 nM

Question: For `CCCCCCOC(=O)C(C)(C)NP(=O)(CO[C@H](C)Cn1cnc2c(N)ncnc21)OCC(=O)OC1CCCC1` (some centres unmarked) [Example 35], which IC50 [1] is on record?
Answer: 3.83 nM

Question: What about the IC50 [2] of the same molecule?
Answer: 14 nM

Question: How did the IC50 [1] turn out when `CC(C)COC(=O)C(C)(C)NP(=O)(CO[C@H](C)Cn1cnc2c(N)ncnc21)O[C@@H](C)C(=O)OC1CCCC1` (stereo partly drawn) [Example 37, Isobutyl 2-((((((R)-1-(6-amino-9H-purin-9-yl)propan-2-yl)oxy)methyl)(((S)-1-(cyclopentyloxy)-1-oxopropan-2-yl)oxy)phosphoryl)amino)-2-methylpropanoate] was run?
Answer: 10.3 nM

Question: And the IC50 [2]?
Answer: 63.1 nM

Question: For `CC(C)OC(=O)[C@H](C)OP(=O)(CO[C@H](C)Cn1cnc2c(N)ncnc21)NC(C)(C)C(=O)OC1CCCC1` (stereo partly drawn) [Example 39, Cyclopentyl 2-((((((R)-1-(6-amino-9H-purin-9-yl)propan-2-yl)oxy)methyl)(((S)-1-isopropoxy-1-oxopropan-2-yl)oxy)phosphoryl)amino)-2-methylpropanoate], which IC50 [1] is on record?
Answer: 3.43 nM

Question: What about the IC50 [2] of the same molecule?
Answer: 12.6 nM

Question: With `CCOC(=O)[C@H](C)OP(=O)(CO[C@H](C)Cn1cnc2c(N)ncnc21)NC(C)(C)C(=O)OC(C)C` (stereo partly drawn) [Example 40, Isopropyl 2-((((((R)-1-(6-amino-9H-purin-9-yl)propan-2-yl)oxy)methyl)(((S)-1-ethoxy-1-oxopropan-2-yl)oxy)phosphoryl)amino)-2-methylpropanoate] as the molecule, how does the IC50 [1] read?
Answer: 19.2 nM

Question: And the IC50 [2]?
Answer: 58.7 nM

Question: For `CCCCCCOC(=O)C(C)(C)NP(=O)(CO[C@H](C)Cn1cnc2c(N)ncnc21)O[C@@H](C)C(=O)OCC` (stereo partly drawn) [Example 43, Hexyl 2-((((((R)-1-(6-amino-9H-purin-9-yl)propan-2-yl)oxy)methyl)(((S)-1-ethoxy-1-oxopropan-2-yl)oxy)phosphoryl)amino)-2-methylpropanoate], which IC50 [1] is on record?
Answer: 6.15 nM

Question: What about the IC50 [2] of the same molecule?
Answer: 20.4 nM

Question: Which IC50 [1] does the source give for `CCCCCCOC(=O)C(C)(C)NP(=O)(CO[C@H](C)Cn1cnc2c(N)ncnc21)OC(C)(C)C(=O)OC(C)C` (stereo partly drawn) [Example 44, Hexyl 2-((((((R)-1-(6-amino-9H-purin-9-yl)propan-2-yl)oxy)methyl)((1-isopropoxy-2-methyl-1-oxopropan-2-yl)oxy)phosphoryl)amino)-2-methylpropanoate] here?
Answer: 1.42 nM

Question: And the IC50 [2]?
Answer: 1.81 nM
